The source of these data is US6808930B1, “Therapeutic agents” (priority 1997, dated 2004).

For this assay, the system named is L1210, A549 and HRTEC nuclei. The assay can be described thus: DNA fragmentation in isolated nuclei. The format is cell-based. The settings on record: L1210 and A549 nuclei incubated with Ca2+ inhibitors. As to the method:
Nuclei were purified from L1210, A549 and HRTEC cells and incubated with low concentrations of MAL (0.2 and 0.4 mg/ml). The formation of HMW and oligonucleosome length DNA fragments was examined.
A549, L1210 and HRTEC nuclei were isolated from homogenised cells. Pellet 1 from the homogenisation was washed twice in nuclei buffer for 20 min at 100×g and suspended in nuclei buffer for experiments. Rat liver nuclei was isolated.
A549, L1210 or HRTEC nuclei in suspension were placed in individual wells in a 24-well plate ([…]), mixed with MAL, α-lactalbumin, lactoferrin or BSA (100 μl in nucleus buffer), incubated at 37° C. for 1 hour (L1210,) or 2 hours (A549 and HRTEC), harvested by aspiration, analysed for DNA fragmentation as described above.

With `CC(=O)OCOC(=O)CN(CC(=O)OCOC(C)=O)c1ccccc1OCCOc1ccccc1N(CC(=O)OCOC(C)=O)CC(=O)OCOC(C)=O` [BAPTA/AM, reference compound], the “effect on MAL induced DNA fragmentation” value is recorded as “completely blocked the DNA fragmentation”.
For `O=C(O)CN(CCN(CC(=O)O)CC(=O)O)CC(=O)O` [EDTA, reference compound] the value was “completely blocked the DNA fragmentation”.
